# From patent publication US9328122B2, “7-substituted Hanfangichin B derivative, and preparation method and use thereof” (HANGZHOU BENSHENG PHARMACEUTICAL CO., LTD., priority 2012, dated 2016)
# Legend:
# [1] = system: K562/ADR (K562adr, drug-resistant chronic myeloid leukemia) cells; assay: MTT cell growth inhibition, leukemia cells; assay type: cell-based; conditions: Homo sapiens, K562/ADR, 72 h, MTT
# Source text: (§1) Leukemia cell lines: leukemia cell lines: K562adr (drug-resistant, chronic myeloid leukemia, CML), NB4 (acute promyelocytic leukemia, AML), Kasumi-1 (acute myeloid leukemia M2 type, AML-M2), Jurkat (acute lymphoblastic leukemia, ALL), all of which were donated by Cancer Research Institute of Zhejiang University, China; and H9 (acute lymphoblastic leukemia, ALL), which was purchased from China Center for Type Culture Collection.
# (§2) Reagents: The standard sample of fangchinoline (FAN) was purchased from Ci Yuan Biotechnology Co., Ltd., Shaanxi, China; and the 7-substituted fangchinoline derivatives according to the present invention.
# (§3) 6000 well-growing leukemia cells were obtained and inoculated into wells of a 96-well cell culture plate. The culture medium was a RPMI-1640 cell culture medium containing 10% fetal bovine serum. After adding the 7-substituted fangchinoline derivatives of different concentrations the next day and mixing uniformly, the plate was placed in a carbon dioxide cell incubator (5% CO2) at 37° C. and incubating for 72 hours. Then the viable cell concentration was determined by the MTT method.
# [2] = system: NB4 (acute promyelocytic leukemia) cells; assay: MTT cell growth inhibition, leukemia cells; assay type: cell-based; conditions: Homo sapiens, NB4, 72 h, MTT
# Source text: as §1, §2, §3
# [3] = system: RPMI 8226 (multiple myeloma) cells; assay: MTT cell growth inhibition, multiple myeloma cells; assay type: cell-based, human; conditions: Homo sapiens, RPMI 8226, 72 h, MTT
# Description: Myeloma cell lines: RPMI8226 (multiple myeloma), purchased from Fuxiang Bio-tech Co. Ltd., Shanghai, China.
# as §3, with “well-growing” for “well-growing leukemia”, “incubated” for “incubating”
# [4] = system: CNE (nasopharyngeal carcinoma) cells; assay: MTT cell growth inhibition, solid tumor cells; assay type: cell-based, human; conditions: Homo sapiens, CNE, 72 h, MTT
# Source text: (§4) Hep-2 (laryngeal carcinoma), A549 (human lung cancer), CaES-17 (esophageal cancer cell), PC-3 (prostate cancer), CNE (nasopharyngeal carcinoma cell) and SK-OV-3 (ovarian cancer cell), all of which were purchased from China Center For Type Culture Collection; RKO (human colon adenocarcinoma cell), MGC-803 (human gastric cancer cell), MG-63 (osteosarcoma), and U87-MG (malignant glioma cell), all of which were purchased from Fuxiang Bio-tech Co. Ltd., Shanghai, China; PANC-1 (pancreatic cancer), Becap37 (human breast cancer cell), Hela (human cervical cancer cell) and Hep G2 (human liver cancer cell), all of which were donated by Cancer Research Institute of Zhejiang University, China.
# as §3, with “human solid tumor” for “leukemia”, “DMEM High Glucose” for “a RPMI-1640”, “serum. The plate was placed in a carbon dioxide cell incubator (5% CO2) at 37° C. and incubated for 24 hours.” for “serum.”, “added with” for “adding the”, “concentration” for “concentrations the next day”, “incubated” for “incubating”
# [5] = system: CaEs-17 (esophageal cancer) cells; assay: MTT cell growth inhibition, solid tumor cells; assay type: cell-based, human; conditions: Homo sapiens, CaEs17, CaEs-17, 72 h, MTT
# Source text: as §4
# as §3, with “human solid tumor” for “leukemia”, “DMEM High Glucose” for “a RPMI-1640”, “serum. The plate was placed in a carbon dioxide cell incubator (5% CO2) at 37° C. and incubated for 24 hours.” for “serum.”, “added with” for “adding the”, “concentration” for “concentrations the next day”, “incubated” for “incubating”
# [6] = system: PANC-1 (pancreatic cancer) cells; assay: MTT cell growth inhibition, solid tumor cells; assay type: cell-based, human; conditions: Homo sapiens, PANC-1, 72 h, MTT
# Source text: as §4
# as §3, with “human solid tumor” for “leukemia”, “DMEM High Glucose” for “a RPMI-1640”, “serum. The plate was placed in a carbon dioxide cell incubator (5% CO2) at 37° C. and incubated for 24 hours.” for “serum.”, “added with” for “adding the”, “concentration” for “concentrations the next day”, “incubated” for “incubating”
# [7] = system: PC-3 (prostate cancer) cells; assay: MTT cell growth inhibition, solid tumor cells; assay type: cell-based, human; conditions: Homo sapiens, PC-3, 72 h, MTT
# Source text: as §4
# as §3, with “human solid tumor” for “leukemia”, “DMEM High Glucose” for “a RPMI-1640”, “serum. The plate was placed in a carbon dioxide cell incubator (5% CO2) at 37° C. and incubated for 24 hours.” for “serum.”, “added with” for “adding the”, “concentration” for “concentrations the next day”, “incubated” for “incubating”
# [8] = system: SK-OV-3 (ovarian cancer) cells; assay: MTT cell growth inhibition, solid tumor cells; assay type: cell-based, human; conditions: Homo sapiens, SK-OV-3, 72 h, MTT
# Source text: as §4
# as §3, with “human solid tumor” for “leukemia”, “DMEM High Glucose” for “a RPMI-1640”, “serum. The plate was placed in a carbon dioxide cell incubator (5% CO2) at 37° C. and incubated for 24 hours.” for “serum.”, “added with” for “adding the”, “concentration” for “concentrations the next day”, “incubated” for “incubating”
# [9] = system: A549 (human lung cancer) cells; assay: MTT cell growth inhibition, solid tumor cells; assay type: cell-based; conditions: Homo sapiens, A549, 72 h, MTT
# Source text: as §4
# as §3, with “human solid tumor” for “leukemia”, “DMEM High Glucose” for “a RPMI-1640”, “serum. The plate was placed in a carbon dioxide cell incubator (5% CO2) at 37° C. and incubated for 24 hours.” for “serum.”, “added with” for “adding the”, “concentration” for “concentrations the next day”, “incubated” for “incubating”
# [10] = system: Becap-37 (human breast cancer) cells; assay: MTT cell growth inhibition, solid tumor cells; assay type: cell-based; conditions: Homo sapiens, Becap-37, 72 h, MTT
# Source text: as §4
# as §3, with “human solid tumor” for “leukemia”, “DMEM High Glucose” for “a RPMI-1640”, “serum. The plate was placed in a carbon dioxide cell incubator (5% CO2) at 37° C. and incubated for 24 hours.” for “serum.”, “added with” for “adding the”, “concentration” for “concentrations the next day”, “incubated” for “incubating”
# [11] = system: Hela (human cervical cancer) cells; assay: MTT cell growth inhibition, solid tumor cells; assay type: cell-based; conditions: Homo sapiens, Hela, 72 h, MTT
# Source text: as §4
# as §3, with “human solid tumor” for “leukemia”, “DMEM High Glucose” for “a RPMI-1640”, “serum. The plate was placed in a carbon dioxide cell incubator (5% CO2) at 37° C. and incubated for 24 hours.” for “serum.”, “added with” for “adding the”, “concentration” for “concentrations the next day”, “incubated” for “incubating”
# [12] = system: Hep G2 (human liver cancer) cells; assay: MTT cell growth inhibition, solid tumor cells; assay type: cell-based; conditions: Homo sapiens, HepG2, Hep G2, 72 h, MTT
# Source text: as §4
# as §3, with “human solid tumor” for “leukemia”, “DMEM High Glucose” for “a RPMI-1640”, “serum. The plate was placed in a carbon dioxide cell incubator (5% CO2) at 37° C. and incubated for 24 hours.” for “serum.”, “added with” for “adding the”, “concentration” for “concentrations the next day”, “incubated” for “incubating”
# [13] = system: Hep-2 (laryngeal carcinoma) cells; assay: MTT cell growth inhibition, solid tumor cells; assay type: cell-based; conditions: Homo sapiens, Hep-2, 72 h, MTT
# Source text: as §4
# as §3, with “human solid tumor” for “leukemia”, “DMEM High Glucose” for “a RPMI-1640”, “serum. The plate was placed in a carbon dioxide cell incubator (5% CO2) at 37° C. and incubated for 24 hours.” for “serum.”, “added with” for “adding the”, “concentration” for “concentrations the next day”, “incubated” for “incubating”
# [14] = system: MG-63 (osteosarcoma) cells; assay: MTT cell growth inhibition, solid tumor cells; assay type: cell-based; conditions: Homo sapiens, MG-63, 72 h, MTT
# Source text: as §4
# as §3, with “human solid tumor” for “leukemia”, “DMEM High Glucose” for “a RPMI-1640”, “serum. The plate was placed in a carbon dioxide cell incubator (5% CO2) at 37° C. and incubated for 24 hours.” for “serum.”, “added with” for “adding the”, “concentration” for “concentrations the next day”, “incubated” for “incubating”
# [15] = system: MGC-803 (human gastric cancer) cells; assay: MTT cell growth inhibition, solid tumor cells; assay type: cell-based; conditions: MGC-803, 72 h, MTT
# Source text: as §4
# as §3, with “human solid tumor” for “leukemia”, “DMEM High Glucose” for “a RPMI-1640”, “serum. The plate was placed in a carbon dioxide cell incubator (5% CO2) at 37° C. and incubated for 24 hours.” for “serum.”, “added with” for “adding the”, “concentration” for “concentrations the next day”, “incubated” for “incubating”
# [16] = system: RKO (human colon adenocarcinoma) cells; assay: MTT cell growth inhibition, solid tumor cells; assay type: cell-based; conditions: Homo sapiens, RKO, 72 h, MTT
# Source text: as §4
# as §3, with “human solid tumor” for “leukemia”, “DMEM High Glucose” for “a RPMI-1640”, “serum. The plate was placed in a carbon dioxide cell incubator (5% CO2) at 37° C. and incubated for 24 hours.” for “serum.”, “added with” for “adding the”, “concentration” for “concentrations the next day”, “incubated” for “incubating”
# [17] = system: U87-MG (malignant glioma) cells; assay: MTT cell growth inhibition, solid tumor cells; assay type: cell-based; conditions: Homo sapiens, U-87 MG, U87-MG, 72 h, MTT
# Source text: as §4
# as §3, with “human solid tumor” for “leukemia”, “DMEM High Glucose” for “a RPMI-1640”, “serum. The plate was placed in a carbon dioxide cell incubator (5% CO2) at 37° C. and incubated for 24 hours.” for “serum.”, “added with” for “adding the”, “concentration” for “concentrations the next day”, “incubated” for “incubating”
# tumor = assay: Antitumor activity compared with fangchinoline, overall statement; assay type: cell-based; conditions: tumor type not specified
smiles,measurement,setting,value
COc1ccc2cc1Oc1ccc(cc1)C[C@H]1c3cc(c(OC)cc3CCN1C)Oc1c(OCc3cccc(F)c3F)c(OC)cc3c1[C@H](C2)N(C)CC3 [BS-FC-204],IC50,[1]; read-out: IC50,0.38 µg/mL
same,IC90,[1]; read-out: IC90,1.92 µg/mL
same,IC50,[2]; read-out: IC50,0.39 µg/mL
same,IC90,[2]; read-out: IC90,2.57 µg/mL
same,IC50,[3]; read-out: IC50,0.42 µg/mL
same,IC90,[3]; read-out: IC90,1.58 µg/mL
same,IC50,[4]; read-out: IC50,2.7 µg/mL
same,IC90,[4]; read-out: IC90,5.2 µg/mL
same,IC50,[5]; read-out: IC50,4.6 µg/mL
same,IC90,[5]; read-out: IC90,14.5 µg/mL
same,IC50,[6]; read-out: IC50,2.23 µg/mL
same,IC90,[6]; read-out: IC90,6.85 µg/mL
same,IC50,[7]; read-out: IC50,3.8 µg/mL
same,IC90,[7]; read-out: IC90,6.39 µg/mL
same,IC50,[8]; read-out: IC50,12.2 µg/mL
same,IC90,[8]; read-out: IC90,16 µg/mL
same,IC50,[9]; read-out: IC50,2.16 µg/mL
same,IC90,[9]; read-out: IC90,3.94 µg/mL
same,IC50,[10]; read-out: IC50,4.87 µg/mL
same,IC90,[10]; read-out: IC90,7.89 µg/mL
same,IC50,[11]; read-out: IC50,0.5 µg/mL
same,IC90,[11]; read-out: IC90,1 µg/mL
same,IC50,[12]; read-out: IC50,3.73 µg/mL
same,IC90,[12]; read-out: IC90,7.96 µg/mL
same,IC50,[13]; read-out: IC50,3.18 µg/mL
same,IC90,[13]; read-out: IC90,8.31 µg/mL
same,IC50,[14]; read-out: IC50,2.6 µg/mL
same,IC90,[14]; read-out: IC90,3.5 µg/mL
same,IC50,[15]; read-out: IC50,2.94 µg/mL
same,IC90,[15]; read-out: IC90,8.5 µg/mL
same,IC50,[16]; read-out: IC50,1.66 µg/mL
same,IC90,[16]; read-out: IC90,2.95 µg/mL
same,IC50,[17]; read-out: IC50,2.38 µg/mL
same,IC90,[17]; read-out: IC90,9.1 µg/mL
same,antitumor activity compared with that of fangchinoline,tumor,significantly superior
